According to patent publication US10407445B2, “Hepatitis C virus inhibitors” (ENANTA PHARMACEUTICALS, INC., priority 2013, dated 2019):

How the values were obtained:
Type in all cases: cell-based
GT1a-H77 replicon = experiment: Stable replicon assay, comparison to daclatasvir, GT1a-H77; conditions: Hepatitis C virus; Replicon GT1a-H77, NS5A genotype 1a
Protocol: Stable HCV replicon cell lines were grown in complete media (Dulbecco's modified Eagle medium [DMEM], 2 mM L-glutamine, 0.1 mM essential amino acids, 1 mM sodium pyruvate, 10% fetal bovine serum) with the addition 500 μg/ml […] (G418). Huh7-lunet cells were maintained in the same medium without the addition of G418. Cells were routinely passaged at a dilution of 1:5 two times per week. For stable replicon assays (GT1a-H77, GT1b-Con1, GT2a-JFH, GT2a-J6, GT2a-2b-MD2b, GT2a-2b-J8, GT2a-3a-S52, GT3a-552, GT4a-ED43, GT2a-5a-SA13, GT2a-6a-EUKH2, GT2a-6a-HK6a, and GT2a-7a-QC69), an 8-point 3-fold or half-log dilution series of compound was transferred into three replica 96-well plates containing 1×10^4 cells per well in phenol red-free complete media without G418. For the transient replication assay, Huh7-lunet cells in ice-cold phosphate buffered saline (PBS) were electroporated (Bio-Rad Gene pulser: 950 uF, 270V) with 10 μg purified in vitro transcribed HCV replicon RNA, followed by resuspension in phenol red-free complete media without G418 and plating (1×10^4 cells in 200 μL media/well) into three replica 96-well plates prior to compound addition (1 μl compound per well). For stable and transient replicon assays, luciferase activity of compound-treated cells was measured relative to DMSO-treated cells after 72 h incubation using RENILLA-GLO™ Luciferase Assay (Promega). […]

GT2a-7a-QC69 replicon = experiment: Stable replicon assay, comparison to daclatasvir, GT2a-7a-QC69; conditions: Hepatitis C virus
Description: The plasmid pSG-hRlucNeo-JFH1 was generated from pSG-Neo-JFH1 (Kato et al. 2003, Gastroentrology 125:1808-1817). A fragment containing the JFH-1 5′ NTR-hRluc-Neo gene and two unique restriction sites (AgeI and PmeI) was synthesized (Integrated DNA Technologies, Coralville, Iowa). The resulting plasmid was digested with AgeI and PmeI and the excised fragment (5′NTR-hRluc-Neo) was ligated into pSG-Neo-JFH1 digested with the same enzymes to generate pSG-hRlucNeo-JFH1. To allow expression of heterologous NS5A sequences, an NS5A shuttle vector was generated from pSG-Neo-JFH1, in which the entire coding sequence of NS5A plus the first eight codons of NS5B were replaced with an AfeI restriction site. This was done by Infusion cloning (Clontech, Mountain View, Calif.) from two PCR products that were generated using pSG-Neo-JFH1 as a template and the following primer pairs: […]
Stable HCV replicon cell lines were grown in complete media (Dulbecco's modified Eagle medium [DMEM], 2 mM L-glutamine, 0.1 mM essential amino acids, 1 mM sodium pyruvate, 10% fetal bovine serum) with the addition 500 μg/ml […] (G418). […] For stable and transient replicon assays, luciferase activity of compound-treated cells was measured relative to DMSO-treated cells after 72 h incubation using RENILLA-GLO™ Luciferase Assay (Promega). […]

[1] = tested on: wild type (wt) HCV genotype 1a replicon; experiment: Transient replication assay, HCV genotype 1a wild type (wt); conditions: Hepatitis C virus; HCV genotype 1a replicon wt
[2] = tested on: HCV genotype 1a replicon, NS5A K24E; experiment: Transient replication assay, GT1a NS5A K24E; conditions: Hepatitis C virus
[3] = tested on: HCV genotype 1a replicon, NS5A K24E Q30R; experiment: Transient replication assay, GT1a NS5A K24E Q30R; conditions: Hepatitis C virus

Compound	EC50 (GT1a-H77 replicon)	EC50 (GT2a-7a-QC69 replicon)	EC50 [1]	EC50 [2]	EC50 [3]
COC(=O)N[C@H](C(=O)N1C[C@]2(CCCOC2)C[C@H]1c1ncc(-c2ccc(-c3ccc4c(ccc5nc([C@@H]6C[C@@H]7CCC[C@@H]7N6C(=O)[C@@H](NC(=O)OC)C(C)C)[nH]c54)c3)cc2)[nH]1)C(C)C [Compound 16]	0.007 nM	0.02 nM	0.0014 nM	0.0013 nM	1.8 nM
COC(=O)N[C@H](C(=O)N1CCC[C@H]1c1nc(-c2ccc(-c3ccc(-c4c[nH]c([C@@H]5CCCN5C(=O)[C@@H](NC(=O)OC)C(C)C)n4)cc3)cc2)c[nH]1)C(C)C [Daclatasvir, reference compound]	0.06 nM	0.016 nM	0.0083 nM	0.0022 nM	3.5 nM
